Values of other authors as cited in US9877951B2, “Method for treating dementia” (College of William and Mary, priority 2015, dated 2018).
Where two headings read alike, the source gives them in different places.

How the values were obtained:
[1] = storage
[2] = for ability of DCS to facilitate extinction: DCS for five consecutive days
[3] = chronic dosing at typical tuberculosis doses
[4] = test system: Mycobacterium tuberculosis strains; conditions: typical Mycobacterium tuberculosis strains
[5] = not given; remark: listed apart in the source

CC(=O)C=C(C)N[C@@H]1CONC1=O [(R)-4-[(1-methyl-3-oxo-1-butenyl)-amino]-3-isoxazolidinone]
stability relative to DCS [1]: enhanced stability relative to DCS

N[C@@H]1CON=C1O [DCS, 3-Isoxazolidinone, 4-amino-, (4R)-(9Cl)]
serum concentrations generally maintained (dose of 500 mg/day): 25000 to 30000 ng/mL
time of peak serum concentrations after dosing (oral capsules): 3 to 8 h
peak serum concentrations (sub-antimicrobial doses (less than or equal to 2 mg/kg)): less than or equal to 5 μg/mL
ability of DCS to facilitate extinction learning ([2]; rats exposed to DCS for 15 consecutive days): eliminated
ability of DCS to facilitate extinction ([2]; rats, extinction paradigm 28 days later): restored
ability of DCS to facilitate extinction ([2]; rats, extinction paradigm two days later): significantly decreased
recorded side effects [3]: drowsiness, depression, headache, confusion, tremor, vertigo, and memory difficulties, paresthesias, and seizure
minimum inhibitory concentrations (MIC) in vitro [4]: 6 to 25 µg/mL
benefit on Alzheimer's Disease ([5]; 100 mg daily administration (Tsai et al.)): positive benefit
benefit for treatment of Alzheimer's Disease ([5]; up to 50 mg daily dosing, 410-patient trial (Fakouhi et al.)): did not have a significant benefit

CN(C)CCCN1c2ccccc2CCc2ccccc21 [imipramine]
effect on ability of DCS to facilitate extinction learning ([2]; rats, daily administration of imipramine for 15 days): blocked the ability of DCS to facilitate extinction learning
